Tests used:
[1] = Pharmacokinetic evaluation in beagles after intravenous injection and oral administration; type: in vivo; conditions: 0.1 mg/kg
Method: The test sample (Complex (IA) prepared from example 2 of the invention) was dissolved in normal saline (100%) to get a solution at a concentration of 0.04 mg/mL, which was administered by i.v; the same test sample was suspended in 0.5% HPMC to get a suspension at a concentration of 0.02 mg/mL, 0.10 mg/mL, 0.50 mg/mL, 2.00 mg/mL, which was administered by gavage. The beagles were grouped randomly, each dosage group had 6 beagles, half male and half female, which were fasted for 12 h before administered, free drank. After administration of 4 h, beagles uniform ate. The single oral administration group was grouped to 4 dosage groups, which were administered the test sample suspension by gavage respectively, the dosage respectively was 0.1, 0.5, 2.5 and 10 mg/kg, and the volume of the suspension was 5 mL/kg. The blood samples were collected before administration of 0 h, and after administration of 0.25, 0.5, 1.0, 2.0, 4.0, 6.0, 8.0, 10, 12 and 48 h from lateral small saphenous vein or medial head vein of forelimb, which were placed into EDTA-K2 anticoagulative tubes. The i.v group had one dosage group, the test sample solution was administered by i.v at a dosage of 0.1 mg/kg, and the volume of the solution was 2.5 mL/kg. The blood samples were collected before administration of 0 h, and after administration of 5 min, 15 min, 0.5, 1.0, 2.0, 4.0, 6.0, 8.0, 10, 12 and 48 h from lateral small saphenous vein or medial head vein of forelimb, which were placed into EDTA-K2 anticoagulative tubes. The blood samples were centrifuged for 2 min at 11000 rpm, the plasma samples were isolated and stored at −70° C.±10° C.
The concentration of the test sample in plasma was analyzed by the LC-MS/MS method, the pharmacokinetic parameters were calculaged by the […] model method using WinNonlin 6.3 software, and drug-time curve was plotted.
The LC/MS/MS system comprised Agilent 1200 series vacuum […], binary pumps, well-plate autosampler, thermostatted column compartment, the API 4000 QTRAP Triple Quadrupole Mass Spectrometer with an electrosprayionization (ESI) source. Quantitative analysis was carried out using MRM mode.
A Waters Xbridge-C18, 2.1×30 mm, […] column was used for the analysis, 5 μL of the sample was injected. Analysis condition: The mobile phase was […] ammonium formate+0.1% formic acid in water (A) and 2 mM ammonium formate+0.1% formic acidin methanol (B). The flow rate was 0.4 mL/min And the gradient of Mobile phase was in the Table E.

human SGLT-1 = molecular target: T1, human SGLT-1 (Homo sapiens, UniProt P13866); test: Inhibitory activity against SGLT-1, [14C]-AMG uptake in CHO cells; type: cell-based; conditions: CHO cells expressing human SGLT-1, [14C]-AMG
T1 construct: expressed in transfected cells; host or cells: CHO cells (Flp-in CHO)
T1 sequence (P13866 1-664): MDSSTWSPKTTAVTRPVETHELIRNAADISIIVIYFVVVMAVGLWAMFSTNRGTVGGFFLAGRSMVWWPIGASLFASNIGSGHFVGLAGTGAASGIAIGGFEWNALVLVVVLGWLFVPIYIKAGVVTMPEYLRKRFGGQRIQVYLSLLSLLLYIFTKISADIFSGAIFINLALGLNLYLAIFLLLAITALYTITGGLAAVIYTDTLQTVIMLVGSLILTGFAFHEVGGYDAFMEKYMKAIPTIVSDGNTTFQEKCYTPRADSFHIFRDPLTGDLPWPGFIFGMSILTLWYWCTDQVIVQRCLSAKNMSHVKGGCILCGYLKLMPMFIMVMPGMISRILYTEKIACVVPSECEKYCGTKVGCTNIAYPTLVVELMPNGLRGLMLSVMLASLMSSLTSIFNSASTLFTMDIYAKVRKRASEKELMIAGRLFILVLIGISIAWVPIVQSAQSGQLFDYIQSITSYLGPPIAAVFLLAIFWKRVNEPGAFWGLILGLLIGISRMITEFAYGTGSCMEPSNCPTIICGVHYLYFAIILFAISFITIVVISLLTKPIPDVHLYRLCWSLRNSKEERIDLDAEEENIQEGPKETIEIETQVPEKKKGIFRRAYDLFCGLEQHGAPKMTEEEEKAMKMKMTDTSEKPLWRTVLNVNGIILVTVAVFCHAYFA
Method: The following method was used for detecting inhibitory activity of the compounds of the invention against SGLT-1 and SGLT-2.
3×10^4 of FIP-in CHO cells transfected Mock and CHO cells expressing human SGLT-1/SGLT-2 gene were seeded into a 96-well cell culture plate; the cells were incubated for 12 hours, and then to each well was added 150 μL of Na-free buffer to wash the cells once; and then to each well were added 50 μL of Na buffer containing the compound at different concentrations and 0.5 μM [^14C]-AMG, and the plate was incubated in a incubator at 37° C. for 1 hour, the reaction was terminated by adding 150 μL of pre-cooled Na-free buffer; the cells were further washed with Na-free buffer 3 times and the residual liquid was removed; to each well was added 20 μL of pre-cooled NaOH ([…]), the plate was vibrated at 900 rpm for 5 min; and then to each well was added 80 μL of scintillation solution, the plate was vibrated at 600 rpm for 5 min; the plate was analyzed on liquid scintillation counter.

[2] = both sexes, beagle, dog, plasma, iv, i.v
[3] = both sexes, beagle, dog, plasma, po, p.o

`CCOc1ccc(Cc2cc([C@]34OC[C@]([C@@H](C)O)(O3)[C@@H](O)[C@H](O)[C@H]4O)ccc2Cl)cc1` [Complex (IA), Complex (IA) of (1R,2S,3S,4R,5S)-5-(4-chloro-3-(4-ethoxybenzyl)phenyl)-1-((1R)-1-hydroxyethyl)-6,8-dioxabicyclo[3.2.1]octane-2,3,4-triol (I-n) and L-pyroglutamic acid] gave an AUC(0-t) [1, 2] of 617 ng·h/mL, a Cmax [1, 2] of 148 ng/mL and a half-life [1, 2] of 8.97 h. It also gave a half-life ([1]; both sexes, beagle, dog, plasma, oral, p.o) of 8.88 h, a bioavailability ([1]; both sexes, beagle, dog, plasma, po, p.o, read-out: F (oral bioavailability)) of 97.5% and an AUC(0-t) [1, 3] of 602 ng·h/mL. For the same compound, the Cmax [1, 3] was 66.2 ng/mL, the “F (oral bioavailability)” value ([1]; p.o) was 97.57% and the SGLT-1 inhibitory activity (human SGLT-1) was “has SGLT-2 and SGLT-1 inhibitory activity”.
